Measured values as given in PubChem BioAssay AID330 (DTP/NCI, 2004).
Values joined by “and” are separate entries in the source; they are usually repeats but may differ in a detail not shown here. Equal values may be shown once. Toxic doses and inconclusive results are not listed.

Tested on: P388 leukemia ip, CD2F1 mice, survival T/C
Experiment: NCI In Vivo Anticancer Drug Screen. Data for tumor model P388 Leukemia (intraperitoneal) in CD2F1 (CDF1) mice
Conditions: endpoint: median survival time, higher = longer survival
Summary of the method: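 Mice carrying the transplanted tumor received test compound or vehicle. Survival was recorded in each group, and the value is the treated-group measurement divided by that of the vehicle-treated control group.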

[1] = dose: 100.0 mg/kg/injection, schedule: Q04DX002 (ip), vehicle: saline with Tween-80
[2] = dose: 50.0 mg/kg/injection, schedule: Q01DX009 (ip), vehicle: saline
[3] = dose: 100.0 mg/kg/injection, schedule: Q01DX009 (ip), vehicle: saline
[4] = dose: 200.0 mg/kg/injection, schedule: Q01DX009 (ip), vehicle: saline
[5] = dose: 400.0 mg/kg/injection, schedule: Q01DX009 (ip), vehicle: saline
[6] = dose: 200.0 mg/kg/injection, schedule: Q04DX002 (ip), vehicle: saline with Tween-80
[7] = dose: 400.0 mg/kg/injection, schedule: Q04DX002 (ip), vehicle: saline with Tween-80
[8] = dose: 60.0 mg/kg/injection, schedule: Q01DX005 (ip), vehicle: saline with Tween-80
[9] = dose: 120.0 mg/kg/injection, schedule: Q01DX005 (ip), vehicle: saline with Tween-80
[10] = dose: 240.0 mg/kg/injection, schedule: Q01DX005 (ip), vehicle: saline with Tween-80
[11] = dose: 50.0 mg/kg/injection, schedule: Q01DX005 (ip), vehicle: Klucel (hydroxypropylcellulose) (HPC)
[12] = dose: 100.0 mg/kg/injection, schedule: Q01DX005 (ip), vehicle: Klucel (hydroxypropylcellulose) (HPC)
[13] = dose: 200.0 mg/kg/injection, schedule: Q01DX005 (ip), vehicle: Klucel (hydroxypropylcellulose) (HPC)
[14] = dose: 100.0 mg/kg/injection, schedule: Q04DX003 (ip), vehicle: Klucel (hydroxypropylcellulose) (HPC)
[15] = dose: 100.0 mg/kg/injection, schedule: Q01DX001 (ip), vehicle: saline with Tween-80
[16] = dose: 200.0 mg/kg/injection, schedule: Q01DX001 (ip), vehicle: saline with Tween-80
[17] = dose: 400.0 mg/kg/injection, schedule: Q01DX001 (ip), vehicle: saline with Tween-80
[18] = dose: 50.0 mg/kg/injection, schedule: Q01DX009 (ip), vehicle: saline with Tween-80
[19] = dose: 100.0 mg/kg/injection, schedule: Q01DX009 (ip), vehicle: saline with Tween-80

Fc1c2ccccc2c2ccc3cccc4ccc1c2c43
T/C (dose: 50.0 mg/kg/injection, schedule: Q04DX002 (ip), vehicle: saline): 103 % of control and 104 % of control | T/C [1]: 117 % of control | T/C (dose: 100.0 mg/kg/injection, schedule: Q04DX002 (ip), vehicle: saline): 100 % of control and 110 % of control | T/C (dose: 200.0 mg/kg/injection, schedule: Q04DX002 (ip), vehicle: saline): 100 % of control and 113 % of control | T/C (dose: 400.0 mg/kg/injection, schedule: Q04DX002 (ip), vehicle: saline): 103 % of control

CC(C)=CCC/C(C)=C/COC(=O)C1C(C=C(C)C)C1(C)C (stereo unspecified)
T/C [2]: 100 % of control | T/C [3]: 100 % of control | T/C [4]: 116 % of control | T/C [5]: 101 % of control

Cc1ccc2oc3c(ccc(=O)n3C)c(=O)c2c1
T/C [1]: 101 % of control | T/C [6]: 100 % of control | T/C [7]: 98 % of control

O=[N+]([O-])c1cccnc1S(=O)(=O)c1ccccn1
T/C (dose: 6.25 mg/kg/injection, schedule: Q01DX009 (ip), vehicle: Klucel (hydroxypropylcellulose) (HPC)): 100 % of control | T/C (dose: 12.5 mg/kg/injection, schedule: Q01DX009 (ip), vehicle: Klucel (hydroxypropylcellulose) (HPC)): 100 % of control

NC1[N-]C(C2CCCC[N-]2)CC2CCCCC21.NC1[N-]C(C2CCCC[N-]2)CC2CCCCC21.O=[N+]([O-])O.[Cu+] (stereo unspecified)
T/C (dose: 6.25 mg/kg/injection, schedule: Q04DX009 (ip), vehicle: suspension in saline): 98 % of control | T/C (dose: 12.5 mg/kg/injection, schedule: Q04DX009 (ip), vehicle: suspension in saline): 103 % of control | T/C (dose: 25.0 mg/kg/injection, schedule: Q04DX009 (ip), vehicle: suspension in saline): 113 % of control

C=C1C(=O)O[C@@H]2/C=C(/C)[C@@H](OC(C)=O)C/C=C(\C)C(O)[C@@H](OC(=O)/C(C)=C\C)C12 (stereo partly specified)
T/C (dose: 25.0 mg/kg/injection, schedule: Q04DX002 (ip), vehicle: saline with Tween-80): 105 % of control | T/C (dose: 50.0 mg/kg/injection, schedule: Q04DX002 (ip), vehicle: saline with Tween-80): 105 % of control | T/C [1]: 104 % of control | T/C [6]: 97 % of control

O=c1[nH]c(=O)c2c([nH]1)oc1ccccc12
T/C [8]: 102 % of control | T/C [9]: 95 % of control | T/C [10]: 98 % of control

CC(CN(C)C)Oc1ccccc1NC1=C(Cl)C(=O)C(Nc2ccccc2OC(C)CN(C)C)=C(Cl)C1=O (stereo unspecified)
T/C (dose: 10.0 mg/kg/injection, schedule: Q01DX009 (ip), vehicle: saline): 108 % of control and 115 % of control | T/C (dose: 20.0 mg/kg/injection, schedule: Q01DX009 (ip), vehicle: saline): 115 % of control and 118 % of control

CCOC(=O)c1c(N)c(C(=O)c2ccccc2)n2ccc3ccccc3c12
T/C [1]: 100 % of control | T/C [6]: 99 % of control | T/C [7]: 92 % of control

NCCCNC(=O)c1ccccc1N
T/C [11]: 100 % of control | T/C [12]: 100 % of control | T/C [13]: 100 % of control

O=C1OCCC(O)=C1C=NCc1ccccc1
T/C (dose: 25.0 mg/kg/injection, schedule: Q04DX003 (ip), vehicle: Klucel (hydroxypropylcellulose) (HPC)): 105 % of control | T/C (dose: 50.0 mg/kg/injection, schedule: Q04DX003 (ip), vehicle: Klucel (hydroxypropylcellulose) (HPC)): 104 % of control | T/C [14]: 99 % of control and 88 % of control

COc1cc2c(cc1C(CC(C)=O)c1cc(OC)c(OC)c(OC)c1)OCO2 (stereo unspecified)
T/C [8]: 100 % of control | T/C [9]: 100 % of control | T/C [10]: 103 % of control

Cc1nnc(N/N=C/c2ccccc2)n1/N=C\c1ccccc1
T/C [14]: 101 % of control | T/C (dose: 200.0 mg/kg/injection, schedule: Q04DX003 (ip), vehicle: Klucel (hydroxypropylcellulose) (HPC)): 100 % of control | T/C (dose: 400.0 mg/kg/injection, schedule: Q04DX003 (ip), vehicle: Klucel (hydroxypropylcellulose) (HPC)): 105 % of control

O=C1c2cccc(Cl)c2Cc2c(Cl)cccc21
T/C [15]: 105 % of control | T/C [16]: 99 % of control | T/C [17]: 92 % of control

CSc1ccc(N=C(N)N)cc1
T/C [18]: 108 % of control | T/C [19]: 110 % of control

c1ccc(Cc2cc(-c3ccccc3)[nH]c2-c2ccccc2)cc1
T/C [2]: 100 % of control | T/C [3]: 104 % of control | T/C [4]: 90 % of control

CCC(C)P(=O)(N1CC1)N1CC1 (stereo unspecified)
T/C (dose: 6.25 mg/kg/injection, schedule: Q01DX009 (ip), vehicle: saline): 109 % of control | T/C (dose: 6.25 mg/kg/injection, schedule: Q04DX003 (ip), vehicle: saline): 113 % of control | T/C (dose: 25.0 mg/kg/injection, schedule: Q01DX009 (ip), vehicle: saline): 154 % of control | T/C (dose: 25.0 mg/kg/injection, schedule: Q04DX003 (ip), vehicle: saline): 190 % of control

CCSC(=NC)Nc1ccc(Oc2ccc(Cl)cc2)cc1
T/C (dose: 12.5 mg/kg/injection, schedule: Q01DX005 (ip), vehicle: Klucel (hydroxypropylcellulose) (HPC)): 101 % of control and 102 % of control | T/C (dose: 25.0 mg/kg/injection, schedule: Q01DX005 (ip), vehicle: Klucel (hydroxypropylcellulose) (HPC)): 105 % of control and 106 % of control | T/C [11]: 102 % of control and 109 % of control and 123 % of control | T/C [12]: 100 % of control and 106 % of control and 107 % of control

CSCCC(N)C(=O)O (stereo unspecified)
T/C (dose: 25.0 mg/kg/injection, schedule: Q01DX005 (ip), vehicle: saline): 102 % of control | T/C (dose: 25.0 mg/kg/injection, schedule: Q01DX009 (ip), vehicle: other): 107 % of control | T/C (dose: 25.0 mg/kg/injection, schedule: Q01DX009 (ip), vehicle: saline with Tween-80): 103 % of control | T/C (dose: 37.5 mg/kg/injection, schedule: Q01DX009 (ip), vehicle: Klucel (hydroxypropylcellulose) (HPC)): 122 % of control | T/C (dose: 40.0 mg/kg/injection, schedule: Q01DX009 (ip), vehicle: saline with Tween-80): 105 % of control | T/C (dose: 50.0 mg/kg/injection, schedule: Q01DX005 (ip), vehicle: saline): 99 % of control | T/C (dose: 50.0 mg/kg/injection, schedule: Q01DX009 (ip), vehicle: other): 100 % of control and 107 % of control | T/C [18]: 107 % of control | T/C (dose: 75.0 mg/kg/injection, schedule: Q01DX009 (ip), vehicle: Klucel (hydroxypropylcellulose) (HPC)): 103 % of control | T/C (dose: 75.0 mg/kg/injection, schedule: Q01DX009 (ip), vehicle: other): 98 % of control and 94 % of control | T/C (dose: 80.0 mg/kg/injection, schedule: Q01DX009 (ip), vehicle: saline with Tween-80): 100 % of control and 114 % of control | T/C (dose: 100.0 mg/kg/injection, schedule: Q01DX005 (ip), vehicle: saline): 107 % of control | T/C (dose: 100.0 mg/kg/injection, schedule: Q01DX009 (ip), vehicle: other): 100 % of control and 107 % of control | T/C [19]: 108 % of control | T/C [3]: 102 % of control | T/C (dose: 150.0 mg/kg/injection, schedule: Q01DX009 (ip), vehicle: other): 103 % of control and 106 % of control | T/C (dose: 160.0 mg/kg/injection, schedule: Q01DX009 (ip), vehicle: saline with Tween-80): 99 % of control and 102 % of control | T/C (dose: 200.0 mg/kg/injection, schedule: Q01DX005 (ip), vehicle: saline): 101 % of control | T/C (dose: 200.0 mg/kg/injection, schedule: Q01DX009 (ip), vehicle: other): 110 % of control | T/C [4]: 112 % of control | T/C (dose: 225.0 mg/kg/injection, schedule: Q01DX009 (ip), vehicle: other): 109 % of control | T/C (dose: 320.0 mg/kg/injection, schedule: Q01DX009 (ip), vehicle: saline with Tween-80): 106 % of control and 97 % of control | T/C (dose: 400.0 mg/kg/injection, schedule: Q01DX005 (ip), vehicle: saline): 103 % of control | T/C [5]: 108 % of control | T/C (dose: 800.0 mg/kg/injection, schedule: Q01DX009 (ip), vehicle: saline): 108 % of control

CC1(C)COC(=O)/C1=C/C#N
T/C [11]: 106 % of control | T/C [12]: 98 % of control | T/C [13]: 90 % of control

CCOC(=O)C(Cc1ccc(N(CCCl)CCCl)cc1)NC(=O)C(C)NC(C)=O (stereo unspecified)
T/C (dose: 5.0 mg/kg/injection, schedule: Q04DX003 (ip), vehicle: water): 108 % of control | T/C (dose: 10.0 mg/kg/injection, schedule: Q04DX003 (ip), vehicle: water): 111 % of control and 113 % of control | T/C (dose: 40.0 mg/kg/injection, schedule: Q04DX003 (ip), vehicle: water): 122 % of control

CC(C)C1=CCC2C(=C1)CCC1C(C)(C(N)=O)CCCC21C (stereo unspecified)
T/C [15]: 100 % of control | T/C [16]: 100 % of control | T/C [17]: 100 % of control
